Measured values published in patent publication US20050152858A1, “Solubilizing agents for active or functional organic compounds” (ISP INVESTMENTS INC., priority 2003, published 2005).
Read-outs that look alike come from different tables or passages of the source.

Columns and labels:
[1] = Enhancement of UVA absorption (UV spectrum of sunscreen in solvent); format: physicochemical; settings: for λmax of E-517 in the solvent: 10 mg sunscreen E-517 (avobenzone) in 1 L of solvent; for λmax of E-567 in the solvent: 10 mg sunscreen E-567 (benzophenone-3) in 1 L of solvent
Description: A 10-mg portion of sunscreen was dissolved in 1 L of solvent, and the UV spectrum of the solution was measured using a Cary 1 E UV-Visible spectrophotometer.

[2] = Solubility of solid organic sunscreens in various solvents
Description: Predetermined solutions (w/w) were prepared at 40-50° C. using a given solvent-sunscreen combination. The solutions were allowed to stand for 1 week at 25° C. in a constant temperature chamber. A small seed crystal was initially added at 25° C. to hasten equilibration. Solubility was measured by GLC using standard solutions to calibrate the instrument.

λmax of E-517 in the solvent [1]	λmax of E-567 in the solvent [1]	Compound	also measured
362 nm	329 nm	O=C(OCCc1ccccc1)c1ccccc1 [2-phenylethyl benzoate, 2-Phenylethyl Benzoate]	–
358 nm	325 nm	CCO [Ethanol, reference compound]	–
–	–	O=C(Cc1cccc(C(F)(F)F)c1)OCc1ccccc1 [benzyl α,α,α-trifluoro-m-tolylacetate, Benzyl α,α,α-Trifluoro-m-tolylacetate]	Solubility of Avobenzone in the solvent ([2]; sunscreen Avobenzone, 1 week at 25° C., seeded, GLC): 15 % w/w; Solubility of MBC in the solvent ([2]; sunscreen MBC (4-methylbenzylidene camphor), 1 week at 25° C., seeded, GLC): 34 % w/w; Solubility of Oxybenzone in the solvent ([2]; sunscreen Oxybenzone, 1 week at 25° C., seeded, GLC): 28 % w/w
–	–	CC(COC(=O)c1ccccc1)OC(=O)c1ccccc1 (centres unmarked) [propylene glycol dibenzoate, Propylene Glycol Dibenzoate]	Solubility of MBC in the solvent [2]: 33 % w/w
